For series [1], the target named is Phosphatidylinositol 4,5-bisphosphate 3-kinase catalytic subunit alpha isoform (Homo sapiens, UniProt P42336). Put plainly: Inhibition of PI3Kalpha assessed as change in pIC50 by kinobeads assay.
The target in series [2] is Phosphatidylinositol 4,5-bisphosphate 3-kinase catalytic subunit beta isoform (Homo sapiens, UniProt P42338). Put plainly: Inhibition of PI3Kbeta assessed as change in pIC50 by kinobeads assay.
A further series relates to Mus musculus. As to the kind of experiment: Antiinflammatory activity in mouse IL-8-induced air-pouch model assessed as inhibition of granulocyte migration at 3 mg/kg, po. Details: scale not given: the % may be the effect or the level left.
Series [3] has as its target T1, Phosphatidylinositol 4,5-bisphosphate 3-kinase catalytic subunit delta isoform (Homo sapiens, UniProt O00329).
T1 sequence (O00329 whole entry): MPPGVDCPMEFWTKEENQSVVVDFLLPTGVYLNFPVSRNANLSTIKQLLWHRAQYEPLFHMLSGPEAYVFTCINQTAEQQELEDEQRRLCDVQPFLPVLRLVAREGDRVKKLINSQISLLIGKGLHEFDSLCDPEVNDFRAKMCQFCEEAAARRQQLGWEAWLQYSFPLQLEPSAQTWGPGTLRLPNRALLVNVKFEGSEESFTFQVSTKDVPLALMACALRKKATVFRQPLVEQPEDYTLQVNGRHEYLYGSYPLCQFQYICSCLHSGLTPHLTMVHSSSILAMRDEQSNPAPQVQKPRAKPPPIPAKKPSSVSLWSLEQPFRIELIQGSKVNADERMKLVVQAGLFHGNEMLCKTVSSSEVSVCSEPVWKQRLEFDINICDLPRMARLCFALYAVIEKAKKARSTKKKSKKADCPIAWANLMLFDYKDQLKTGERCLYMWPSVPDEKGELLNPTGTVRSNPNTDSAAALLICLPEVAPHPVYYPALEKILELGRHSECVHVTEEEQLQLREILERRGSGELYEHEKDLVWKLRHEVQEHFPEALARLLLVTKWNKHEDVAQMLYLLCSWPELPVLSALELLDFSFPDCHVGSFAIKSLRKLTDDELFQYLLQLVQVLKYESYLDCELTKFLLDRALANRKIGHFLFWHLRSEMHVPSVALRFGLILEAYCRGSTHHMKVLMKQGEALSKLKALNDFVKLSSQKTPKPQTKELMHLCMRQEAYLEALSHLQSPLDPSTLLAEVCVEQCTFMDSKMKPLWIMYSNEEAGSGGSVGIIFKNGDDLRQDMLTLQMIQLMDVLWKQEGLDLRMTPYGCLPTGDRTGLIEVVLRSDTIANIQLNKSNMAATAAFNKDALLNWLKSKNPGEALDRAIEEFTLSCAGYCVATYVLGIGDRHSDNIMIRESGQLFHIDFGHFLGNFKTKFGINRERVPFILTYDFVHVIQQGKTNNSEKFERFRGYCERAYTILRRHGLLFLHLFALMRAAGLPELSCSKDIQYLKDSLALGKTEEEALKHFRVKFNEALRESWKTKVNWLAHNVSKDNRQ
As to the kind of experiment: Inhibition of PI3Kdelta assessed as change in pIC50 by kinobeads assay.

Series [4] deals with Phosphatidylinositol 4,5-bisphosphate 3-kinase catalytic subunit gamma isoform (Homo sapiens, UniProt P48736). Put plainly: Inhibition of PI3Kgamma by kinobeads assay.
Series [5] addresses Phosphatidylinositol 4,5-bisphosphate 3-kinase catalytic subunit delta isoform/gamma isoform (Homo sapiens, UniProt P48736+O00329). As to the kind of experiment: Inhibition of PI3Kgamma/delta by neutrophil migration assay.
Series [6] concerns Hepatocyte. Put plainly: Metabolic stability in rat hepatocytes measured per gram of tissue. In kind it is ADME, cell-based.
Series [7] deals with Hepatocyte. As to the kind of experiment: Metabolic stability in mouse hepatocytes measured per gram of tissue. In kind it is ADME, cell-based.
The test system of series [8] is Hepatocyte. As to the kind of experiment: Metabolic stability in human hepatocytes measured per gram of tissue. In kind it is ADME, cell-based.
Series [9] in a line: AUC in rat […] at 5 mg/kg, po. The series is classed as ADME, organism-based. On the set-up: dose 5 mg/kg, route oral. On the technique in general: Liver microsomes are vesicles of endoplasmic reticulum, rich in cytochrome P450 enzymes.
A further series deals with Liver microsomes. Put plainly: Volume of distribution at steady state […] at 5 mg/kg, po. In kind it is ADME, organism-based. On the set-up: dose 5 mg/kg, route oral.
The nature of series [10]: Cmax in rat […] at 5 mg/kg, po. In kind it is ADME, organism-based. On the set-up: dose 5 mg/kg, route oral.
Series [11] in a line: Oral bioavailability in Wistar rat at 5 mg/kg. The conditions noted are these: in vivo.
Series [12] is described as follows: Half life in rat […] at 5 mg/kg, po. The series is classed as ADME, organism-based. On the set-up: dose 5 mg/kg, route oral.

The structures appear in SMILES notation.

Phosphatidylinositol 4,5-bisphosphate 3-kinase catalytic subunit gamma isoform, sequence (P48736 whole entry, canonical isoform): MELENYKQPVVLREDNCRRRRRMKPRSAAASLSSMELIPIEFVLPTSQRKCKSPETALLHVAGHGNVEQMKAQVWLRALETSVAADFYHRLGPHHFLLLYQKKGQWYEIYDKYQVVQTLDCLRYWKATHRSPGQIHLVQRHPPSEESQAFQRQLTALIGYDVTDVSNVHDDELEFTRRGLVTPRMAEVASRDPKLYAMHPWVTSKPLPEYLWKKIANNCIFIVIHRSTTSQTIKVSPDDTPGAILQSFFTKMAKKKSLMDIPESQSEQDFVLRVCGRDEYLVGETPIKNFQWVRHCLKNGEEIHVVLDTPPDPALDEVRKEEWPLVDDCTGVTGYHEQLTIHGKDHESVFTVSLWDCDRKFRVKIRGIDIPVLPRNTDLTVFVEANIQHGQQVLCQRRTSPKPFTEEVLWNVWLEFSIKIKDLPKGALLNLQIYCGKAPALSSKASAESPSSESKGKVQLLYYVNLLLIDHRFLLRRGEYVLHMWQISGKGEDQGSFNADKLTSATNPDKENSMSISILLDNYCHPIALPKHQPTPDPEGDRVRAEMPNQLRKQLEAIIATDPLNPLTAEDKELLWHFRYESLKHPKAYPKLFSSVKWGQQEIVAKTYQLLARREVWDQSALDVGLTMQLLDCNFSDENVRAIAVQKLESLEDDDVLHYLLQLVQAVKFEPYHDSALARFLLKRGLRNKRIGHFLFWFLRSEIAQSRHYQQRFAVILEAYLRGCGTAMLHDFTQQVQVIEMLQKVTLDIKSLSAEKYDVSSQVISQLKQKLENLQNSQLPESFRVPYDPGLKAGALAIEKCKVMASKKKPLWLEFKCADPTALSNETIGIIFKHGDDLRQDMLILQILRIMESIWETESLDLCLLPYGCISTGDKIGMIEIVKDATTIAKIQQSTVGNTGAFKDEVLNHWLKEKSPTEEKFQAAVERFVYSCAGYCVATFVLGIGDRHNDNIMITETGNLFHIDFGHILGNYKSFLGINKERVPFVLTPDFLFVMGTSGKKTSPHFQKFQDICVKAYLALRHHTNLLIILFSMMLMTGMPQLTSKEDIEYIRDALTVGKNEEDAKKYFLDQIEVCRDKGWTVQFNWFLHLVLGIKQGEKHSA
Phosphatidylinositol 4,5-bisphosphate 3-kinase catalytic subunit alpha isoform, sequence (P42336 whole entry, canonical isoform): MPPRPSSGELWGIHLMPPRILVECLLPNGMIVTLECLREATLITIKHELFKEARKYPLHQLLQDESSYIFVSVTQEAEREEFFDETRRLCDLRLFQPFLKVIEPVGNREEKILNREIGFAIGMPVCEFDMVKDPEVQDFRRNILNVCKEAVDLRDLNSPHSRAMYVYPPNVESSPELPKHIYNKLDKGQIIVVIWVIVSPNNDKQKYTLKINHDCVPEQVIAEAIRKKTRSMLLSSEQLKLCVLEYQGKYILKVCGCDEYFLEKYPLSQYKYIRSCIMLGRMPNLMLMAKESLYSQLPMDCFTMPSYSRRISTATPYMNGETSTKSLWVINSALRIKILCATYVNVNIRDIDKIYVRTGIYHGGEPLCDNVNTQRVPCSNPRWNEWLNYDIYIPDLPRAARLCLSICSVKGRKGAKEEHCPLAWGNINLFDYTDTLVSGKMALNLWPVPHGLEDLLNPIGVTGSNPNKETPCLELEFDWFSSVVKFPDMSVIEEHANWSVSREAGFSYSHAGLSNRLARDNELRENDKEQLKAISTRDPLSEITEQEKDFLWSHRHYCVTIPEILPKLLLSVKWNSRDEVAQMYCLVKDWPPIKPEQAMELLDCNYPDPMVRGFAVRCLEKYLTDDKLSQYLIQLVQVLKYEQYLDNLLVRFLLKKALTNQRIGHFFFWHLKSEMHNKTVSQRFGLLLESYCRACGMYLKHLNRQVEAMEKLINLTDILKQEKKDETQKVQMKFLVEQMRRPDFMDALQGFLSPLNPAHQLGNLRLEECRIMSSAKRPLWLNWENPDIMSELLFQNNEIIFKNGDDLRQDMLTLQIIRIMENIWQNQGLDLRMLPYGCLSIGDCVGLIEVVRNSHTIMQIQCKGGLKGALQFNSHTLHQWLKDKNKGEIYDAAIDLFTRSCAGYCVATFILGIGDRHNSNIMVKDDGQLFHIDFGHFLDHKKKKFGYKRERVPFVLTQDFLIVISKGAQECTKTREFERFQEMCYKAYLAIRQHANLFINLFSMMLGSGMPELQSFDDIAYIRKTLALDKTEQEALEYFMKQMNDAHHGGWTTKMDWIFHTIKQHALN
Phosphatidylinositol 4,5-bisphosphate 3-kinase catalytic subunit beta isoform, sequence (P42338 whole entry, canonical isoform): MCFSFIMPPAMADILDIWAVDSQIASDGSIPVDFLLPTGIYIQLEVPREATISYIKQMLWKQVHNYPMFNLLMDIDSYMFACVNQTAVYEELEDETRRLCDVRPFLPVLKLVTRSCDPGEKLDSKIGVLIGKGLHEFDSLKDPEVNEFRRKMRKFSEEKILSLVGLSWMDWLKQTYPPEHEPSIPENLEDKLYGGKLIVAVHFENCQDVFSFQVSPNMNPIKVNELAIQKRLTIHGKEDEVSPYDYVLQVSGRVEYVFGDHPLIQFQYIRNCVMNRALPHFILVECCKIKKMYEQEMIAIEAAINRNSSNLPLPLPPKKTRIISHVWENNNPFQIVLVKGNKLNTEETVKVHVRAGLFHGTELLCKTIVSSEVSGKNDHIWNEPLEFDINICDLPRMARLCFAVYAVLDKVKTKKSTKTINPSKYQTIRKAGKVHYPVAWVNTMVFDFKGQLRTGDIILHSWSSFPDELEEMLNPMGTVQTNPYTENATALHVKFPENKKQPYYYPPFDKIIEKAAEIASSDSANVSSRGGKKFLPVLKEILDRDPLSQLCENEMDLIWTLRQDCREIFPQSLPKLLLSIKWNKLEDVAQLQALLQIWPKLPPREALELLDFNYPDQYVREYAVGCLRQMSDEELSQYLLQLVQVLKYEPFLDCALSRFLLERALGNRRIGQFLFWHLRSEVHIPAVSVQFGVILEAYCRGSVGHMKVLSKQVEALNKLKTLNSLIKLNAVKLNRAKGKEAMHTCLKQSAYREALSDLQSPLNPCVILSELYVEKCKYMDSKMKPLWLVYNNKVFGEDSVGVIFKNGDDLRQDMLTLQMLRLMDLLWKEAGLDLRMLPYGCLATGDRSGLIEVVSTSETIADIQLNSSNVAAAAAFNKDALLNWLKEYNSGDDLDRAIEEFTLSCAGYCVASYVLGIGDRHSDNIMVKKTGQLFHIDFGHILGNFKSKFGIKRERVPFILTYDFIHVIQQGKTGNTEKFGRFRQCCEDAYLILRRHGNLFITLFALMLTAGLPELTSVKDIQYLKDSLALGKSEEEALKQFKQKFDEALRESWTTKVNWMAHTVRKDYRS

The term IC50 denotes the concentration at which inhibition is half-maximal. As for `CC(C)(C)NS(=O)(=O)c1cncc(-c2cc(F)c3nc(N)nn3c2)c1`, the IC50 was more than 10 µM in series [1], 1 µM in series [2], 7.94 µM in series [3] and 0.0251 µM in series [4]. In the series with Mus musculus, the Activity turned out to be 29%.
In [4], `CS(=O)(=O)c1cncc(-c2ccn3nc(N)nc3c2)c1` had an IC50 of 0.0794 µM.
What is called pIC50 is −log10 of the IC50, conventionally taken in molar units. Turning to `CC(C)(C)NS(=O)(=O)c1cncc(-c2cc(F)n3nc(N)nc3c2)c1`, in series [5], the pIC50 came to 6.1. The CLint was found to be 7.5 mL/min/g in the series on Hepatocyte [6], 36.1 mL/min/g in the series with Hepatocyte [7] and 2.5 mL/min/g in the series on Hepatocyte [8]. The same molecule showed an IC50 in series [4] of 0.0158 µM.
In the case of `CCCNS(=O)(=O)c1cncc(-c2ccn3nc(N)nc3c2)c1`, in [5], the pIC50 is on record as 6.2. The half-maximal inhibitory concentration (IC50) in series [3] was less than 20000 µM; in [4], 0.0316 µM.
In the case of `CC(C)NS(=O)(=O)c1cncc(-c2ccn3nc(N)nc3c2)c1`, the pIC50 in series [5] was determined as 6.3. The molecule also had an IC50 in [4] of 0.0251 µM.
The like results for `Nc1nc2cc(-c3cncc(S(=O)(=O)NCC(F)(F)F)c3)ccn2n1` were, in that order, 5.9 and 0.02 µM.
The corresponding values for `CC(C)(NS(=O)(=O)c1cncc(-c2ccn3nc(N)nc3c2)c1)C(F)(F)F` are 5.6 and 0.02 µM.
The molecule `Nc1nc2cc(-c3cncc(S(=O)(=O)Nc4ccccc4)c3)ccn2n1` gave a pIC50 in series [5] of 5. Moreover, inhibition in [4] was half-maximal at 0.0398 µM (IC50).
In the case of `Nc1nc2cc(-c3cncc(S(=O)(=O)NCc4ccccc4)c3)ccn2n1`, 0.1 µM corresponded to half-maximal inhibition in series [4] (IC50).
For the molecule `CCN(CC)S(=O)(=O)c1cncc(-c2ccn3nc(N)nc3c2)c1`, in series [5], the negative logarithm of the IC50 (pIC50) came out at 5.9. This molecule had an IC50 in [4] of 0.00794 µM.
The like results for `CC1(C)CCN1S(=O)(=O)c1cncc(-c2ccn3nc(N)nc3c2)c1` were, in that order, 5.7 and 0.0251 µM.
The like results for `Nc1nc2cc(-c3cncc(S(N)(=O)=O)c3)ccn2n1` were, in that order, 6.1 and 0.02 µM.
The term AUC denotes the area under the concentration-time curve, a measure of exposure. In general, Cmax refers to the highest concentration seen after dosing. The bioavailability is the share of a dose that reaches the circulation, judged against a reference dose that is usually intravenous. For orientation: half-life means how long it takes for the measured level to halve. `CNS(=O)(=O)c1cncc(-c2ccn3nc(N)nc3c2)c1` came in with an AUC in [9] of 6.7 µM·h. In the series with Liver microsomes, this molecule had a Vdss of 2.2 L/kg. In series [5], this molecule gave a pIC50 of 6.3. In addition, the Cmax in series [10] was determined as 5 µM. In series [11], this molecule came in with a bioavailability of 56%. In series [4], this molecule gave an IC50 of 0.0251 µM. For the same molecule, the half-life in series [12] is 1.2 h.

Values taken from ChEMBL document CHEMBL2203257 (Bioorg Med Chem Lett, 2012).
